Reference: patent US20240165112A1, “THERAPY FOR THE TREATMENT OF CANCER” (Bristol-Myers Squibb Company, priority 2022, published 2024)

How the values were obtained:
[1] = test system: COL1A1, PAI-1, TNC, LRRC15 transcripts in A549 lung cancer cells; assay: TGF-β-induced transcripts in A549 tumor cells (RT-PCR); format: cell-based, human
Procedure: Indicated gene transcripts were assessed by RT-PCR relative to GAPDH. Data were normalized to expression after TGF-β-treatment in the presence of only DMSO. Data are presented as mean of 3 biological replicates, and error bars indicate standard deviation. The graphs are representative of at least 2 independent experiments. *P<0.05; ** P<0.01, ***P<0.001; ****P<0.0001 by student's t-test.
(§1) Cells were directly lysed in Qiagen™ Buffer RLT Plus with 1% 2-Mercaptoethanol added. Total RNA from tumor samples and cell lines was isolated using Qiagen™ AllPrep® DNA/RNA 96 Kit according to manufacturer's protocol. Isolated RNA was analyzed with NanoDrop™ ONE Spectrophotometer for concentration. The RNA integrity was also analyzed on Agilent TapeStation 4200.
(§2) Complimentary deoxyribonucleic acid (cDNA) was prepared by using Invitrogen™ SuperScript™ III First-Strand Synthesis SuperMix for qRT-PCR. Up to 1 μg of RNA was prepared according to manufacturer's protocol, using Applied Biosystems™ Veriti™ 96-well thermal cycler. The reverse transcription (RT) program used for cDNA synthesis: • 1. 25° C., 10 minutes • 2. 50° C., 30 minutes • 3. 85° C., 5 minutes • 4. Add E. Coli RNase H, 37° C., 20 minutes • 5. Hold at 4° C. Quantitative Reverse Transcription Polymerase Chain Reaction (qRT-PCR).
(§3) The cDNA was diluted 1:3 fold in nuclease-free water for quantitative polymerase chain reaction (qPCR) setup. Human and mouse TaqMan™ assays for targeted genes were ordered through Applied Biosystems™. TaqMan™ assay selection was based on manufacturer's recommendation. The qRT-PCR was set up using Applied Biosystems™ TaqMan™ Fast Advanced Master Mix according to manufacturer's protocol. The qRT-PCR was run on QuantStudio™ 12 Flex with fast run mode: • 1. 95° C., 20 seconds • 2. 95° C., 1 second • 3. 60° C., 20 seconds • 4. Repeat steps 2-3, 39 times
(§4) The qPCR data was analyzed, and all cycle threshold (Ct) values were normalized to glyceraldehyde-3-phosphate dehydrogenase (GAPDH) (ΔCt). Analysis was plotted and presented using GraphPad Prism (GraphPad, Version 8.4.1, San Diego, CA).
The RNA expression was assessed 24 hours after TGF-β treatment.

[2] = test system: TNC, ACTA2, PAI-1 transcripts in lung cancer-associated fibroblasts (CAF); assay: TGF-β-induced gene transcription, fibroblast activation markers (RT-PCR); format: cell-based, human
Procedure: FIGS. 9A-9C illustrates the effect of Compound 1 on Transcriptional Markers of Fibroblast Activation in Lung Cancer Associated Fibroblasts Treated with TGF-β. […] Lung cancer-associated fibroblasts (CAF, black bars) were treated with 10 ng/mL TGF-β after 1-hour pre-incubation with a range of Compound 1 concentrations, and cells were lysed 24 hours later. Indicated gene transcripts were assessed by RT-PCR relative to GAPDH. Data were normalized to expression after TGF-β-treatment in the presence of only DMSO. Data are presented as mean of 3 biological replicates, and error bars indicate standard deviation. The graphs are representative of at least 2 independent experiments. *P<0.05; ** P<0.01, ***P<0.001; ****P<0.0001 by student's t-test. Abbreviations: ACTA2, smooth muscle actin; CAF, cancer associated fibroblasts; DMSO, dimethyl sulfoxide; GAPDH, glyceraldehyde-3-phosphate dehydrogenase; NHLF, normal lung human fibroblasts; PAI-1, plasminogen activator inhibitor 1; RNA, ribonucleic acid; RT-PCR, reverse transcription polymerase chain reaction; […], transforming growth factor beta; TNC, tenascin C.
Cells were seeded (75,000 NHLF and lung CAF cells) into 12 well plates with RPMI+10% FBS and allowed to adhere overnight at 37° C., 5% CO2. After one day of serum starvation, cells were pre-treated for 1 hour with DMSO or Compound 1 at 30 μM, 10 μM, 3 μM, 1 μM, or 0.3 μM and then stimulated with 10 ng/mL TGF-β. The 24-hour Compound 1 treated samples were harvested for ribonucleic acid (RNA) extraction.
as §1, §2, §3, §4
The levels of phospho-c-Jun in NHLF and non-small cell lung CAF in response to TGF-β in the presence of DMSO or varying concentrations of Compound 1 were summarized in FIG. 7. Cells were treated with DMSO or Compound 1 for 1 hour prior to treatment with 10 ng/mL TGF-β for an additional 2 hours. Phospho-c-Jun levels were determined by western blot analysis and were normalized to DMSO treated samples. […] The relative expression of fibroblast activation markers in NHLF and lung CAF in response to TGF-β in the presence of DMSO or varying concentrations of Compound 1 were summarized in FIGS. 8A-8C and FIGS. 9A-9C. Cells were treated with DMSO or Compound 1 for 2 hours prior to treatment with 10 ng/mL TGF-β. The RNA expression was assessed 24 hours after TGF-β treatment.

[3] = 30 μM Compound 1, 10 ng/mL TGF-β, 24 hours
[4] = CAF stimulated with TGFβ, 10 μM Compound 1
[5] = CAF, 30 μM Compound 1, 10 ng/mL TGF-β, 24 hours

C[C@@H]1CC[C@@H](Nc2nc(NC(C)(C)C)ncc2C(N)=O)C[C@H]1O [Compound 1, 2-(tert-butylamino)-4-((1R,3R,4R)-3-hydroxy-4-methylcyclohexylamino)-pyrimidine-5-carboxamide]
COL1A1 reduced relative to TGF-β stimulation in the presence of DMSO alone [1, 3]: 56% | PAI-1 reduced relative to TGF-β stimulation in the presence of DMSO alone [1, 3]: 64% | TNC reduced relative to TGF-β stimulation in the presence of DMSO alone [1, 3]: 90% | Tenascin C upregulation with TGF-β treatment ([1]; Compound 1 at 30 μM, 15 μM or 5 μM): inhibited by all doses of Compound 1 tested | PAI-1 reduced relative to DMSO [2, 4]: PAI-1, ACTA2, and TNC were reduced 71%, | TNC reduced relative to DMSO [2, 4]: 77% | TNC induction, reduction from peak activation relative to baseline ([2]; CAF, 0.3 μM Compound 1, 10 ng/mL TGF-β, 24 hours): 34% | PAI-1 induction, reduction from peak activation relative to baseline ([2]; CAF, 1 μM Compound 1, 10 ng/mL TGF-β, 24 hours): 25% | ACTA2 induction, reduction from peak activation relative to baseline ([2]; CAF, 10 μM Compound 1, 10 ng/mL TGF-β, 24 hours): 71% | ACTA2 expression [2, 5]: lower than samples in the absence of TGF-β | PAI-1 induction, reduction from peak activation relative to baseline [2, 5]: 98% | TNC induction, reduction from peak activation relative to baseline [2, 5]: 97%
